From patent US6387906B1, “2,4,4-trisubstituted-1,3-dioxolane antifungals” (priority 1997, dated 2002)
Structures can show the parent of a compound that is named as a salt.

Tests used:
Trichophyton rubrum = assay: Measurement of antifungal activity in vitro (lowest active dose) vs. Trichophyton rubrum; assay type: cell-based; conditions: lowest concentration inhibiting growth below 35% of control growth; CYG broth, 30° C. for 5-7 days, turbidimetry
Protocol: (§1) Test compounds were dissolved at a concentration of 10^−2 M in dimethyl sulfoxide (DMSO) and diluted into CYG broth (Odds, F. C. Antimicrobial Agents and Chemotherapy 1992; 36: 1727-1737) to give a final concentration of 25 μM and, in most tests, 5 μM. For some compounds the tests were done at 100, 10, 1.0 and 0.1 μM. Cultures were inoculated with Candida.kefyr to an initial concentration of 10^4/ml and with Trichophyton rubrum to an equivalent concentration determined by turbidimetry. Cultures were incubated in the wells of microdilution plates at 37° C. for 48 h (C. kefyr) and at 30° C. for 5-7 days (T. rubrum). Growth in wells containing test compounds was estimated turbidimetrically as a percentage of growth in compound-free controls and the lowest concentration of compound that inhibited the growth of an isolate below 35% of control growth was recorded as the lowest active dose (LAD).

Candida kefyr = assay: Measurement of antifungal activity in vitro (lowest active dose) vs. Candida kefyr; assay type: cell-based; conditions: lowest concentration inhibiting growth below 35% of control growth; CYG broth, 37° C. for 48 h, turbidimetry
Protocol: as §1

Row | Compound | melting point | LAD (μM) vs. T. rubrum (Trichophyton rubrum) | LAD (μM) vs. C. keyr (Candida kefyr)
1 | CC(C)NC(=O)Nc1ccc(N2CCN(c3ccc(OCC4OCC(Cn5cncn5)(c5ccc(F)cc5F)O4)cc3)CC2)cc1 (stereo not drawn) [Compound 53, (2S-cis)-N-[4-[4-[4-[[4-(2,4-difluorophenyl)-4-(1H-1,2,4-triazol-1-ylmetyl)-1,3-dioxolan-2-yl]-methoxy]phenyl]-1-piperazinyl]phenyl]-N′-(1-methylethyl)urea] | 196 °C | – | –
2 | CC(C)N(C)C(=O)Nc1ccc(N2CCN(c3ccc(OCC4OCC(Cn5cncn5)(c5ccc(F)cc5F)O4)cc3)CC2)cc1 (stereo not drawn) (as salt: HCl) [Compound 54, (B-cis)-N-[4-[4-[4-[[4-(2,4-difluorophenyl)-4-(1H-1,2,4-triazol-1-yl-methyl)-1,3-dioxolan-2-yl]methoxy]phenyl]-1-piperazinyl]phenyl]-N′-methyl-N′-(1-methylethyl)urea] | 186 °C | – | –
3 | CC(C)N1CCN(c2ccc(N3CCN(c4ccc(OC[C@@H]5OC[C@@](Cn6cncn6)(c6ccc(F)cc6)O5)cc4)CC3)cc2)C1=O (racemic) [Compound 40] | – | ≦5 μM | ≦25 μM
4 | CN1CCN(c2ccc(N3CCN(c4ccc(OC[C@@H]5OC[C@@](Cn6ccnc6)(c6ccc(F)cc6)O5)cc4)CC3)cc2)C1=O (racemic) [Compound 42] | – | ≦5 μM | ≦5 μM
5 | CCC(CC)N1CCN(c2ccc(N3CCN(c4ccc(OC[C@@H]5OC[C@@](Cn6ccnc6)(c6ccc(F)cc6)O5)cc4)CC3)cc2)C1=O (racemic) [Compound 44] | – | ≦5 μM | ≦5 μM
6 | CC(C)N1CCN(c2ccc(N3CCN(c4ccc(OC[C@H]5OC[C@](Cn6cncn6)(c6ccc(F)cc6F)O5)cc4)CC3)cc2)C1=O.Cl (stereo in doubt) [Compound 52, (2S-cis)-1-[4-[4-[4-[[4-(2,4-difluorophenyl)-4-(1H-1,2,4-triazol-1-ylmethyl)-1,3-dioxolan-2-yl]methoxy]phenyl]-1-piperazinyl]phenyl]-3-(1-methylethyl)-2-imidazolidinone hydrochloride (1:1)] | – | ≦0.1 μM | ≦0.1 μM
7 | CC(C)N1CCN(c2ccc(N3CCN(c4ccc(OC[C@H]5OC[C@](Cn6cncn6)(c6ccc(F)cc6F)O5)cc4)CC3)cc2)C1=O [Compound 51, (2S-cis)-1-[4-[4-[4-[[4-(2,4-difluorophenyl)-4-(1H-1,2,4-triazol-1-ylmethyl)-1,3-dioxolan-2-yl]methoxy]phenyl]-1-piperazinyl]phenyl]-3-(1-methylethyl)-2-imidazolidinone] | 177.8 °C | ≦0.1 μM | ≦0.1 μM
8 | CCN1CCN(c2ccc(N3CCN(c4ccc(OC[C@@H]5OC[C@@](Cn6ccnc6)(c6ccc(Cl)cc6)O5)cc4)CC3)cc2)C1=O (racemic) [Compound 27] | – | ≦5 μM | ≦5 μM
